Test results reported in patent US20110020460A1, “GPR 119 MODULATORS” (Pfizer Inc., priority 2009, published 2011).
Values joined by “and” are separate entries in the source; they are usually repeats but may differ in a detail not shown here. Identical values can stand only once.

Tests used:
human GPR119 [1] = target: T1, human GPR119 (Homo sapiens, UniProt Q8TDV5); assay: cAMP HTRF functional assay (hGPR119 HEK-CRE beta-lactamase cells); assay type: cell-based; conditions: for Emax: read-out: Intrinsic Activity* (cAMP)
T1 construct: host or cells: HEK293-CRE-beta-lactamase
T1 sequence (Q8TDV5 1-335): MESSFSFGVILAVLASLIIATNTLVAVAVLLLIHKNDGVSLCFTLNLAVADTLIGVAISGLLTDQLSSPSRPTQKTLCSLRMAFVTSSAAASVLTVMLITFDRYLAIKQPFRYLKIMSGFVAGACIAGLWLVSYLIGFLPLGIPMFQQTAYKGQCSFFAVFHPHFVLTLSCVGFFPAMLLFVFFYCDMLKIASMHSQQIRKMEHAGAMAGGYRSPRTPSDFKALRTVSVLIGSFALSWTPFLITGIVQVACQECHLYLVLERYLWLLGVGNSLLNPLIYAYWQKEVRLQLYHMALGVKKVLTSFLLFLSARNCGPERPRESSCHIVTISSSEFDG
Method: GPR119 agonist activity was also determined with a cell-based assay utilizing an HTRF (Homogeneous Time-Resolved Fluorescence) cAMP detection kit (cAMP dynamic 2 Assay Kit; Cis Bio cat #62AM4PEC) that measures cAMP levels in the cell. The method is a competitive immunoassay between native cAMP produced by the cells and the cAMP labeled with the dye d2. The tracer binding is visualized by a Mab anti-cAMP labeled with Cryptate. The specific signal (i.e. energy transfer) is inversely proportional to the concentration of cAMP in either standard or sample.
Following 30 minutes incubation at room temperature, 5 microL of labeled d2 cAMP and 5 microL of anti-cAMP antibody (both diluted 1:20 in cell lysis buffer; as described in the manufacturers assay protocol) were added to each well of the assay plate. […] Raw data were converted to nM cAMP by interpolation from a cAMP standard curve (as described in the manufacturer's assay protocol) and EC50 determinations were made from an agonist-response curves analyzed with a curve fitting program using a 4-parameter logistic dose response equation.

human GPR119 [2] = target: T1, human GPR119; assay: GPR119 radioligand binding assay ([3H]-Compound A or [3H]-Compound B, HEK 293FT membranes); conditions: Ki from IC50 by Cheng-Prusoff; one value per run; read-out: Human Binding Ki
Method: Cells were harvested via centrifugation (3,000×g, 10 minutes), washed once on DPBS (minus Ca++/Mg++), resuspended in 0.25M sucrose, 25 mM HEPES, 0.5 mM EDTA, pH 7.4 and frozen at −80 degrees Celsius.
The frozen cells were thawed on ice and centrifuged at 700×g (1400 rpm) for 10 minutes at 4 degrees Celsius. The cell pellet was resuspended in 20 mL phosphate-buffered saline, and centrifuged at 1400 rpm for 10 minutes. […] Cells were then lysed with 15 gentle strokes of a tight-fitting glass Dounce homogenizer. The homogenate was centrifuged at 1000×g (2200 rpm) for 10 minutes at 4 degrees Celsius. The supernatant was transferred into fresh centrifuge tubes on ice. The cell pellet was resuspended in homogenization buffer, and centrifuged again at 1000×g (2200 rpm) for 10 minutes at 4 degrees Celsius after which the supernatant was removed and the pellet resuspended in homogenization buffer. […] The solution was then centrifuged at 25,000×g (15000 rpm) for 20 minutes at 4 degrees Celsius, the supernatant was discarded, and the pellet was resuspended in fresh homogenization buffer (minus Benzonase and MgCl2). After repeating the 25,000×g centrifugation step, the final membrane pellet was resuspended in homogenization buffer and frozen at −80 degrees Celsius.
2 microL of each dilution was added to appropriate wells of a 96-well plate (each concentration in triplicate).
Membranes expressing GPR119 were thawed and diluted to a final concentration of 20 μg/100 microL per well in Binding Buffer, and 100 microL of diluted membranes were added to each well of 96-well plate.
The plate was incubated for 60 minutes w/shaking at room temperature (approximately 25 degrees Celsius). […] Filters were then washed six times using washing buffer (50 mM Tris-HCl, pH 7.5 kept at 4 degrees Celsius). The filter plates were then air-dyed at room temperature overnight.
IC50 determinations were made from competition curves, analyzed with a proprietary curve fitting program (SIGHTS) and a 4-parameter logistic dose response equation. Ki values were calculated from IC50 values, using the Cheng-Prusoff equation.

human GPR119 [3] = target: T1, human GPR119; assay: beta-lactamase reporter functional assay (hGPR119 HEK293-CRE beta-lactamase cells); assay type: cell-based; conditions: for EC50: read-out: Human B-lactamase Functional EC50; for Emax: read-out: Intrinsic Activity* (B-lactamase)
Method: The assay for GPR119 agonists utilizes a cell-based (hGPR119 HEK293-CRE beta-lactamase) reporter construct where agonist activation of human GPR119 is coupled to beta-lactamase production via a cyclic AMP response element (CRE). GPR119 activity is then measured utilizing a FRET-enabled beta-lactamase substrate, CCF4-AM (Live Blazer FRET-B/G Loading kit, Invitrogen cat #K1027). […] After 4 hours the plating medium was removed and replaced with 40 microL of assay medium (Assay medium is plating medium without potassium clavulanate and HIFBS). Varying concentrations of each compound to be tested was then added in a volume of 10 microL (final DMSO≦0.5%) and the cells were incubated for 16 hours at 37 degrees Celsius in a humidified environment containing 5% carbon dioxide. Plates were removed from the incubator and allowed to equilibrate to room temperature for approximately 15 minutes. 10 microL of 6×CCF4/AM working dye solution (prepared according to instructions in the Live Blazer FRET-B/G Loading kit, Invitrogen cat #K1027) was added per well and incubated at room temperature for 2 hours in the dark. Fluorescence was measured on an EnVision fluorimetric plate reader, excitation 405 nm, emission 460 nm/535 nm. EC50 determinations were made from agonist-response curves analyzed with a curve fitting program using a 4-parameter logistic dose-response equation.

[4] = hGPR119 HEK-CRE beta-lactamase cells, HTRF cAMP, one value per run
[5] = percent of maximal activity relative to standard GPR119 agonist (WO2005121121) at 10 μM, one value per run
[6] = **curve was extrapolated to 100% to calculate an EC50
[7] = hGPR119 HEK293-CRE beta-lactamase cells, one value per run
[8] = percent of maximal activity relative to standard GPR119 agonist (WO2005121121) at 10 microM, one value per run

| EC50 (human GPR119 [1]; [4]) | Emax (human GPR119 [1]; [5]) [%] | Ki (human GPR119 [2]) | EC50 (human GPR119 [3]; [6]) [nM] | Emax (human GPR119 [3]; [6]) [%] | Intrinsic Activity* (cAMP) (human GPR119 [1]; [5]) | EC50 (human GPR119 [3]; [7]) | Intrinsic Activity* (B-lactamase) (human GPR119 [3]; [8]) | Emax (human GPR119 [3]; [8]) [%] | EC50 (human GPR119 [1]; [6]) | Emax (human GPR119 [1]; [6]) [%] | Structure (SMILES) |
| --- | --- | --- | --- | --- | --- | --- | --- | --- | --- | --- | --- |
| > 10000 nM | 31 | 1700 nM | 5200 | 100 | – | – | – | – | – | – | Cc1ccccc1OCc1cnn(C2CCN(C(=O)OC(C)C)CC2)c1C#N [Example 12, Isopropyl 4-{5-cyano-4-[(2-methylphenoxy)methyl]-1H-pyrazol-1-yl}piperidine-1-carboxylate] |
| 18 nM and 31 nM | 76 | 31 nM and 29 nM | – | – | 66% | 76 nM and 125 nM | 101% | 83 | – | – | Cc1nc(-n2cncn2)ccc1OCc1cnn(C2CCN(C(=O)OC(C)C)CC2)c1C#N [Example 35, Isopropyl 4-[5-cyano-4-({[2-methyl-6-(1H-1,2,4-triazol-1-yl)pyridin-3-yl]oxy}methyl)-1H-pyrazol-1-yl]piperidine-1-carboxylate] |
| 256 nM and 245 nM | 68 | 2020 nM | – | – | 60% | 136 nM and 166 nM | 113% and 76% | – | – | – | Cc1ncccc1OCc1cnn(C2CCN(C(=O)OC3(C)CC3)CC2)c1C#N [Example 30, 1-Methylcyclopropyl 4-(5-cyano-4-{[(2-methylpyridin-3-yl)oxy]methyl}-1H-pyrazol-1-yl)piperidine-1-carboxylate] |
| 147 nM and 161 nM | 29 | 159 nM | – | – | – | – | – | – | – | – | CC(C)OC(=O)N1CCC(n2ncc(COc3ccc(-c4nnn(CCO)n4)cc3F)c2C#N)CC1 [Example 22, Isopropyl 4-(5-cyano-4-((2-fluoro-4-(2-(2-hydroxyethyl)-2H-tetrazol-5-yl)phenoxy)methyl)-1H-pyrazol-1-yl)piperidine-1-carboxylate] |
| 10 nM and 9 nM | 80 | 5 nM | – | – | 60% | 15 nM and 16 nM | 95% | 97 | – | – | CC(C)OC(=O)N1CCC(n2ncc(COc3ccc(-n4cnnn4)cc3)c2C#N)CC1 [Example 4, Isopropyl 4-(5-cyano-4-{[4-(1H-tetrazol-1-yl)phenoxy]methyl}-1H-pyrazol-1-yl)piperidine-1-carboxylate] |
| 163 nM and 98 nM and 154 nM | 61 | 530 nM | – | – | 74% and 62% | 782 nM | – | 98 | – | – | CC(C)OC(=O)N1CCC(n2ncc(COc3ccc(F)cc3F)c2C#N)CC1 [Example 11, Isopropyl 4-{5-cyano-4-[(2,4-difluorophenoxy)methyl]-1H-pyrazol-1-yl}piperidine-1-carboxylate] |
| 254 nM | 62 | – | – | – | – | – | – | – | – | – | CC1(OC(=O)N2CCC(n3ncc(COc4ccc(C(N)=O)c(F)c4)c3C#N)CC2)CC1 [Example 26, 1-Methylcyclopropyl 4-(4-((4-carbamoyl-3-fluorophenoxy)methyl)-5-cyano-1H-pyrazol-1-yl)piperidine-1-carboxylate] |
| 44 nM and 32 nM and 57 nM | 33 | 58 nM and 128 nM | – | – | 31% and 34% | 688 nM and 201 nM | 96% | 100 | – | – | CC(C)OC(=O)N1CCC(n2ncc(COc3ccc(-c4nnn(C)n4)cc3F)c2C#N)CC1 [Example 21, Isopropyl 4-(5-cyano-4-((2-fluoro-4-(2-methyl-2H-tetrazol-5-yl)phenoxy)methyl)-1H-pyrazol-1-yl)piperidine-1-carboxylate] |
| 57 nM and 111 nM | – | 418 nM | – | – | 88% and 114% | – | – | – | – | – | Cn1nnnc1-c1ccc(OCc2cnn(C3CCN(C(=O)OC4(C)CC4)CC3)c2C#N)cc1 [Example 25, 1-Methylcyclopropyl 4-(5-cyano-4-{[4-(1-methyl-1H-tetrazol-5-yl)phenoxy]methyl}-1H-pyrazol-1-yl)piperidine-1-carboxylate] |
| – | – | 35 nM and 42 nM | – | – | – | 56 nM and 89 nM | 93% | 98 | – | – | CC(C)OC(=O)N1CCC(n2ncc(CCc3ccc(S(C)(=O)=O)cc3F)c2C#N)CC1 [Example 9, Isopropyl 4-(5-cyano-4-{2-[2-fluoro-4-(methylsulfonyl)phenyl]ethyl}-1H-pyrazol-1-yl)piperidine-1-carboxylate] |
| 59 nM and 90 nM | 123 | 41 nM and 144 nM | 131 | 100 | – | 61 nM | – | 107 | – | – | CC(C)OC(=O)N1CCC(n2ncc(COc3ccc(-c4nnnn4C)cc3F)c2C#N)CC1 [Example 20, Isopropyl 4-(5-cyano-4-((2-fluoro-4-(1-methyl-1H-tetrazol-5-yl)phenoxy)methyl)-1H-pyrazol-1-yl)piperidine-1-carboxylate] |
| 442 nM and 650 nM | 39 | 939 nM and 1710 nM | – | – | 34% | 250 nM and 227 nM and 395 nM | 88% and 104% | 100 | – | – | Cc1ncccc1OCc1cnn(C2CCN(C(=O)OC(C)C)CC2)c1C#N [Example 5, Isopropyl 4-(5-cyano-4-{[(2-methylpyridin-3-yl)oxy]methyl}-1H-pyrazol-1-yl)piperidine-1-carboxylate] |
| – | – | 150 nM | – | – | – | – | – | – | 1640 nM and 1470 nM | 100 | CC(C)OC(=O)N1CCC(n2ncc(COc3ccc(-c4nnnn4CCO)cc3F)c2C#N)CC1 [Example 23, Isopropyl 4-(5-cyano-4-((2-fluoro-4-(1-(2-hydroxyethyl)-1H-tetrazol-5-yl)phenoxy)methyl)-1H-pyrazol-1-yl)piperidine-1-carboxylate] |
| 67 nM and 69 nM | 80 | 153 nM | – | – | 75% | – | – | – | – | – | CC(C)OC(=O)N1CCC(n2ncc(COc3ccc(-n4cccn4)cc3)c2C#N)CC1 [Example 18, Isopropyl 4-(4-((4-(1H-pyrazol-1-yl)phenoxy)methyl)-5-cyano-1H-pyrazol-1-yl)piperidine-1-carboxylate] |
